This test relates to Phi6 bacteriophage (surrogate for Coronavirus and Ebola). It counts as cell-based.

Turning to `[O][Cl+][O-]` [ClO2, chlorine dioxide], the “log reduction of virions” value turned out to be 6 log, the “time in which 6-log reduction was achieved” value is recorded as “less than 90 minutes” and the “virions recovered from the coupons treated with ClO2 gas” value is reported as “no virions were recovered”.

The record behind these values is US12010997B2, “Systems, methods, and apparatuses for disinfection and decontamination” (priority 2020, dated 2024).
